The test system of assay [1] is A431cells (human epidermoid carcinoma). Kind of assay: In vitro tumor cell proliferation assay (Cell Titer-Glo luminescent cell viability), A431 cells. The assay is classed as cell-based. The settings on record: A-431, 72 h, 72 hours drug exposure, 10% Fetal Bovine Serum, ATP luminescence readout, read-out: IC50 (50% inhibition of cell proliferation). From the text: (§1) In vitro Tumor Cell Proliferation Assay
(§2) The tumor cell proliferation assay used to test the compounds of the present invention involves a readout called Cell Titer-Glow® Luminescent Cell Viability Assay developed by Promega (Cunningham, B A “A Growing Issue: Cell Proliferation Assays, Modern kits ease quantification of cell growth” The Scientist 2001, 15(13), 26, and Crouch, S P et al., “The use of ATP bioluminescence as a measure of cell proliferation and cytotoxicity” Journal of Immunological Methods 1993, 160, 81–88), that measures inhibition of cell proliferation. Generation of a luminescent signal corresponds to the amount of ATP present, which is directly proportional to the number of metabolically active (proliferating) cells.
(§3) A431cells (human epidermoid carcinoma, ATCC # HTB-20) and BT474 (human breast carcinoma, ATCC # CRL-1555) were plated at a density of 2.5×10^3 cells/well in 96 well black-clear bottom tissue culture plates in RPMI media with 10% Fetal Bovine Serum and incubated at 37° C. Twenty-four hours later, test compounds are added at a final concentration range from as high 100 μM to as low 64 pM depend on the activities of the tested compounds in serial dilutions at a final DMSO concentration of 0.1%. Cells were incubated for 72 hours at 37° C. in complete growth media after addition of the test compound. After 72 hours of drug exposure, the plates were equilibrated to room temperature for approximately 30 min. Then, using a Promega Cell Titer Glo Luminescent® assay kit, lysis buffer containing 100 microliters of the enzyme luciferase and its substrate, luciferin mixture, was added to each well. The plates were mixed for 2 min on orbital shaker to ensure cell lysis and incubated for 10 min at room temperature to stabilize luminescence signal. The samples were read on VICTOR 2 using Luminescence protocol, and analyzed with Analyze5 software to generate IC50 values.

The test system of assay [2] is BT474 (human breast carcinoma). Kind of assay: In vitro tumor cell proliferation assay (Cell Titer-Glo luminescent cell viability), BT474 cells. The assay is classed as cell-based. Conditions: BT-474, 72 hours drug exposure, 10% Fetal Bovine Serum, ATP luminescence readout, read-out: IC50 (50% inhibition of cell proliferation).
Description: as §1, §2, §3

This is an account of results in patent US7238701B2, “Substituted tetrahydrobenzothienopyrimidinamine compounds useful for treating hyper-proliferative disorders” (Bayer Pharmaceuticals Corporation, priority 2003, dated 2007).

Bounds are passed on as bounds.

As to `CNCCC1CCc2c(sc3ncnc(Nc4ccc(OCc5ccccn5)c(Cl)c4)c23)C1` (stereo not drawn) [Example 187, N-[3-chloro-4-(pyridin-2-ylmethoxy)phenyl]-7-[2-(methylamino)ethyl]-5,6,7,8-tetrahydro[1]benzothieno[2,3-d]pyrimidin-4-amine], the results for the IC50 in assay [1] and in assay [2] were under 50 µM and under 5 µM, respectively.
Regarding `COCCN(C)CCC1CCc2c(sc3ncnc(Nc4ccc(OCc5cccc(F)c5)c(Cl)c4)c23)C1` (stereo not drawn) [Example 159, N-{3-chloro-4-[(3-fluorobenzyl)oxy]phenyl}-7-{2-[(2-methoxyethyl)(methyl)amino]ethyl}-5,6,7,8-tetrahydro[1]benzothieno[2,3-d]pyrimidin-4-amine], the IC50 in assay [1] and in assay [2] was under 5 µM each time.
On to `COCCN(C)C(=O)C1CCc2c(sc3ncnc(Nc4ccc(F)c(Cl)c4)c23)C1` (stereo not drawn) [Example 8, 4-[(3-chloro-4-fluorophenyl)amino]-N-(2-methoxyethyl)-N-methyl-5,6,7,8-tetrahydro[1]benzothieno[2,3-d]pyrimidine-7-carboxamide], for which the IC50 in assay [1] and in assay [2] was under 50 µM in each case.
Turning to `Fc1cccc(COc2ccc(Nc3ncnc4sc5c(c34)CCC(CCN3CCCCC3)C5)cc2Cl)c1` (stereo not drawn) [Example 167, N-{3-chloro-4-[(3-fluorobenzyl)oxy]phenyl}-7-(2-piperidin-1-ylethyl)-5,6,7,8-tetrahydro[1]benzothieno[2,3-d]pyrimidin-4-amine], the IC50 in assay [1] and in assay [2] was under 5 µM each time.
Turning to `CNCCC1CCc2c(sc3ncnc(Nc4ccc(OCc5cccc(F)c5)c(Cl)c4)c23)C1` (stereo not drawn) [Example 169, N-{3-chloro-4-[(3-fluorobenzyl)oxy]phenyl}-7-[2-(methylamino)ethyl]-5,6,7,8-tetrahydro[1]benzothieno[2,3-d]pyrimidin-4-amine], the IC50 in assay [1] and in assay [2] was under 5 µM in each case.
Turning to `Cc1ccc(Oc2ccc(Nc3ncnc4sc5c(c34)CCC(CCN3CCCC3)C5)cc2C)cn1` (stereo not drawn) [Example 221, N-{3-methyl-4-[(6-methylpyridin-3-yl)oxy]phenyl}-7-(2-pyrrolidin-1-ylethyl)-5,6,7,8-tetrahydro[1]benzothieno[2,3-d]pyrimidin-4-amine], the IC50 in assay [1] and in assay [2] was under 5 µM in each case.
For the compound `CCOC(=O)CC1CCc2c(sc3ncnc(Nc4ccc(OCc5ccc(F)cc5)c(Cl)c4)c23)C1` (stereo not drawn) [Example 143, ethyl [4-({3-chloro-4-[(4-fluorobenzyl)oxy]phenyl}amino)-5,6,7,8-tetrahydro[1]benzothieno[2,3-d]pyrimidin-7-yl]acetate], the IC50 in assay [1] was under 50 µM; in assay [2], under 5 µM.
In the same order, the values of `COCCN(C)CCC1CCc2c(sc3ncnc(Nc4ccc(Oc5ccc(C)nc5)c(C)c4)c23)C1` (stereo not drawn) [Example 218, 7-{2-[(2-methoxyethyl)(methyl)amino]ethyl}-N-{3-methyl-4-[(6-methylpyridin-3-yl)oxy]phenyl}-5,6,7,8-tetrahydro[1]benzothieno[2,3-d]pyrimidin-4-amine] are under 50 µM and under 5 µM.
Regarding `Cc1ccc(Oc2ccc(Nc3ncnc4sc5c(c34)CCC(CCOS(C)(=O)=O)C5)cc2C)cn1` (stereo not drawn) [Example 215, 2-[4-({3-methyl-4-[(6-methylpyridin-3-yl)oxy]phenyl}amino)-5,6,7,8-tetrahydro[1]benzothieno[2,3-d]pyrimidin-7-yl]ethyl methanesulfonate], the IC50 in assay [1] is under 50 µM; in assay [2], under 5 µM.
In the same order, the values of `CN(C)[C@@H]1CCN(CCC2CCc3c(sc4ncnc(Nc5cccc(Br)c5)c34)C2)C1` (stereo partly drawn) [Example 94, N-(3-bromophenyl)-7-{2-[(3R)-3-(dimethylamino)-1-pyrrolidinyl]ethyl}-5,6,7,8-tetrahydro[1]benzothieno[2,3-d]pyrimidin-4-amine] are under 5 µM and under 5 µM.
In the same order, the values of `CN(C)CCC1CCc2c(sc3ncnc(Nc4ccc(OCc5ccccn5)c(Cl)c4)c23)C1` (stereo not drawn) [Example 185, N-[3-chloro-4-(pyridin-2-ylmethoxy)phenyl]-7-[2-(dimethylamino)ethyl]-5,6,7,8-tetrahydro[1]benzothieno[2,3-d]pyrimidin-4-amine] are under 5 µM and under 5 µM.
In the same order, the values of `Cc1ccc(Oc2ccc(Nc3ncnc4sc5c(c34)CCC(CCN3CCC(N(C)C)C3)C5)cc2C)cn1` (stereo not drawn) [Example 223, 7-{2-[3-(dimethylamino)pyrrolidin-1-yl]ethyl}-N-{3-methyl-4-[(6-methylpyridin-3-yl)oxy]phenyl}-5,6,7,8-tetrahydro[1]benzothieno[2,3-d]pyrimidin-4-amine] are under 5 µM and under 5 µM.
Consider `COc1ccc(NCCC2CCc3c(sc4ncnc(Nc5cccc(Br)c5)c34)C2)cc1` (stereo not drawn) [Example 89, N-(3-bromophenyl)-7-{2-[(4-methoxyphenyl)amino]ethyl}-5,6,7,8-tetrahydro[1]benzothieno[2,3-d]pyrimidin-4-amine], for which the IC50 in assay [1] and in assay [2] was under 50 µM throughout.
`Fc1cccc(COc2ccc(Nc3ncnc4sc5c(c34)CCC(CCBr)C5)cc2Cl)c1` (stereo not drawn) [Example 138, [7-(2-Bromo-ethyl)-5,6,7,8-tetrahydro-benzo[4,5]thieno[2,3-d]pyrimidin-4-yl]-[3-chloro-4-(3-fluoro-benzyloxy)-phenyl]-amine]: the values for the IC50 in assay [1] and in assay [2] were under 50 µM and under 5 µM, respectively.
In the same order, the values of `CN1CCN(CCC2CCc3c(sc4ncnc(Nc5ccc(OCc6ccccn6)c(Cl)c5)c34)C2)CC1` (stereo not drawn) [Example 183, N-[3-chloro-4-(pyridin-2-ylmethoxy)phenyl]-7-[2-(4-methylpiperazin-1-yl)ethyl]-5,6,7,8-tetrahydro[1]benzothieno[2,3-d]pyrimidin-4-amine] are under 5 µM and under 5 µM.
In the same order, the values of `Fc1ccc(Nc2ncnc3sc4c(c23)CCC(CCN2CCCCC2)C4)cc1Cl` (stereo not drawn) [Example 73, N-(3-chloro-4-fluorophenyl)-7-[2-(1-piperidinyl)ethyl]-5,6,7,8-tetrahydro[1]benzothieno[2,3-d]pyrimidin-4-amine] are under 5 µM and under 5 µM.
In the same order, the values of `CS(=O)(=O)CCNCCC1CCc2c(sc3ncnc(Nc4ccc(F)c(Cl)c4)c23)C1` (stereo not drawn) [Example 97, N-(3-chloro-4-fluorophenyl)-7-(2-{[(2-methylsulfonyl)ethyl]amino}ethyl)-5,6,7,8-tetrahydro[1]benzothieno[2,3-d]pyrimidin-4-amine] are under 5 µM and under 5 µM.
On to `CCOC(=O)CC1CCc2c(sc3ncnc(Nc4ccc(Oc5ccc(C)nc5)c(C)c4)c23)C1` (stereo not drawn) [Example 213, ethyl [4-({3-methyl-4-[(6-methylpyridin-3-yl)oxy]phenyl}amino)-5,6,7,8-tetrahydro[1]benzothieno[2,3-d]pyrimidin-7-yl]acetate], for which the IC50 in assay [1] and in assay [2] was under 50 µM in each case.
`COCCN(C)CC1CCc2c(sc3ncnc(Nc4cccc(Br)c4)c23)C1` (stereo not drawn) [Example 36, N-(3-bromophenyl)-7-{[(2-methoxyethyl)(methyl)amino]methyl}-5,6,7,8-tetrahydro[1]benzothieno[2,3-d]pyrimidin-4-amine]: in assay [2], the IC50 was under 5 µM.
The same measure, in the same setting: under `CN1CCN(C(=O)C2CCc3c(sc4ncnc(Nc5ccc(OCc6ccccc6)cc5)c34)C2)CC1` (stereo not drawn) [Example 43, N-[4-(benzyloxy)phenyl]-7-[(4-methyl-1-piperazinyl)carbonyl]-5,6,7,8-tetrahydro[1]benzothieno[2,3-d]pyrimidin-4-amine] stands under 5 µM.
For the compound `CN1CCN(CC2CCc3c(sc4ncnc(Nc5cccc(Br)c5)c34)C2)CC1` (stereo not drawn) [Example 26, N-(3-bromophenyl)-7-[(4-methyl-1-piperazinyl)methyl]-5,6,7,8-tetrahydro[1]benzothieno[2,3-d]pyrimidin-4-amine], the IC50 in assay [1] was under 5 µM.
With `OCCC1CCc2c(sc3ncnc(Nc4ccc(OCc5ccc(F)cc5)c(Cl)c4)c23)C1` (stereo not drawn) [Example 155, 2-[4-({3-chloro-4-[(4-fluorobenzyl)oxy]phenyl}amino)-5,6,7,8-tetrahydro[1]benzothieno[2,3-d]pyrimidin-7-yl]ethanol], the IC50 in assay [2] is under 5 µM.
Same read-out and setting: the value for `CS(=O)(=O)OCCC1CCc2c(sc3ncnc(Nc4ccc(OCc5ccc(F)cc5)c(Cl)c4)c23)C1` (stereo not drawn) [Example 156, 2-[4-({3-chloro-4-[(4-fluorobenzyl)oxy]phenyl}amino)-5,6,7,8-tetrahydro[1]benzothieno[2,3-d]pyrimidin-7-yl]ethyl methanesulfonate] was under 5 µM.
On to `Cc1ccc(Nc2ncnc3sc4c(c23)CCC(C(=O)O)C4)cc1O` (stereo not drawn) [Example 46, 4-[(3-hydroxy-4-methylphenyl)amino]-5,6,7,8tetrahydro[1]benzothieno[2,3-d]pyrimidine-7-carboxylic acid], for which the IC50 in assay [1] was under 50 µM.
